US20240150293A1, “SPIROCYCLOHEXANE DERIVATIVES, PHARMACEUTICAL COMPOSITIONS CONTAINING THEM AND THEIR USES AS ANTI-APOPTOTIC INHIBITORS” (LES LABORATOIRES SERVIER, priority 2021, published 2024)

Biological target: Mcl-1 protein (UniProtKB Q07820) (Homo sapiens (Human), UniProt Q07820)
Assay: Inhibition of Mcl-1 by the fluorescence polarisation assay (Example A, Method A)
Assay type: binding
Conditions: fluorescence polarization assay
Procedure: The relative binding potency of each compound was determined via Fluorescence Polarisation (FP). The method utilised a Fluorescein labelled ligand (Fluorescein-βAla-Ahx-A-REIGAQLRRMADDLNAQY-OH; MW 2,765) which binds to the Mcl-1 protein (such that Mcl-1 corresponds to the UniProtKB® primary accession number: Q07820) leading to an increased anisotropy measured in milli-polarisation (mP) units using a reader. The addition of a compound which binds competitively to the same site as the ligand will result in a greater proportion of unbound ligand in the system indicated by a decrease in mP units.
An 11 point serial dilution of each compound was prepared in DMSO and 2 μl transferred into flat bottomed, low binding, 384-well plate (final DMSO concentration 5%). 38 μl of buffer containing the Fluorescein labelled ligand (final concentration 1 nM) and Mcl-1 protein (final concentration 5 nM) was then added. Buffer components were 10 mM 4-(2-hydroxyethyl)-1-piperazineethanesulfonic acid [HEPES], 150 mM NaCl, pH 7.4 with the addition of 0.05% Tween 20.
Assay plates were incubated for 2 hours at room temperature before FP was measured on a […] Synergy Neo reader ([…], Cut off 510 nm) and mP units calculated. The binding of increasing doses of test compound was expressed as a percentage reduction in mP compared to a window established between ‘5% DMSO only’ and ‘100% inhibition’ controls. 11-point dose response curves were plotted with XL-Fit software using a 4-Parameter Logistic Model (Sigmoidal Dose-Response Model) and the inhibitory concentrations that gave a 50% reduction in mP (IC50) were determined. The Ki values were determined from the IC50 values according to Cer et al, Nucleic Acids Res, 2009, 37 (WebServer issue): W441-W445. Inhibition constants (Ki) are determined from complete binding inhibition curves (cKi) or from estimated from incomplete binding inhibition curves (eKi) in most cases due to low activity.

Mcl-1 protein, sequence (Q07820 whole entry): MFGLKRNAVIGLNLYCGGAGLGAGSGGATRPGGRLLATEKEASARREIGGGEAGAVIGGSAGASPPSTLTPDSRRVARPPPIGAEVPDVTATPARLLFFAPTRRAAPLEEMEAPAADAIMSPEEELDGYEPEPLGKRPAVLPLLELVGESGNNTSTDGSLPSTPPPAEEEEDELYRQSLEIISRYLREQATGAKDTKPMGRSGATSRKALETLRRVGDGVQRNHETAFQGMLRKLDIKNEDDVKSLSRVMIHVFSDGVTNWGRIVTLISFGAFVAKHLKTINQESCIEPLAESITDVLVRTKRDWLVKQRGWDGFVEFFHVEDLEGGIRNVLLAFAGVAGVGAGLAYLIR

| Ki [nM] | Compound |
| --- | --- |
| 136000 | Cc1cc(C2=Cc3ccccc3C23CCC(Nc2cccc(Br)c2)(C(=O)O)CC3)ccc1Cl (single isomer, unassigned) [Example 235, 4-(3-bromoanilino)-2′-(4-chloro-3-methylphenyl)spiro[cyclohexane-1,1′-indene]-4-carboxylic acid] |
| 5020 | Cc1ccc(C2Cc3ccccc3C23CCC(Nc2cccc(Br)c2)(C(=O)O)CC3)s1 (single isomer, unassigned) [Example 263, 4-(3-bromoanilino)-2′-(5-methylthiophen-2-yl)-2′,3′-dihydrospiro[cyclohexane-1,1′-indene]-4-carboxylic acid] |
| 115000 | Cc1ccc(C2=Cc3ccccc3C23CCC(Nc2cccc(Br)c2)(C(=O)O)CC3)cc1Cl (single isomer, unassigned) [Example 234, 4-(3-bromoanilino)-2′-(3-chloro-4-methylphenyl)spiro[cyclohexane-1,1′-indene]-4-carboxylic acid] |
| 312 | COc1ccccc1CCOCC1=Cc2ccccc2[C@]12CC[C@@](Nc1cccc(Cl)c1)(C(=O)O)CC2 [Example 414, (1s,4s)-4-(3-chloroanilino)-2′-{[2-(2-methoxyphenyl)ethoxy]methyl}spiro[cyclohexane-1,1′-indene]-4-carboxylic acid] |
| 3100 | COc1ccc2c(c1)[C@]1(CC[C@@](Nc3cccc(Cl)c3)(C(=O)O)CC1)C(c1cccc(Oc3ccccc3)c1)C2 (single isomer, unassigned) [Example 379, (1r,4r)-4-(3-chloroanilino)-6′-methoxy-2′-(3-phenoxyphenyl)-2′,3′-dihydrospiro[cyclohexane-1,1′-indene]-4-carboxylic acid] |
| 593 | O=C(O)[C@]1(Nc2cccc(Cl)c2)CC[C@]2(CC1)C(c1cccc3ccoc13)=Cc1ccccc12 [Example 266, (1s,4s)-2′-(1-benzofuran-7-yl)-4-(3-chloroanilino)spiro[cyclohexane-1,1′-indene]-4-carboxylic acid] |
| 1100 | O=C(O)[C@]1(Nc2cccc(Cl)c2)CC[C@]2(CC1)C(COCCc1ccc(Cl)cc1)=Cc1ccccc12 [Example 420, (1s,4s)-4-(3-chloroanilino)-2′-{[2-(4-chlorophenyl)ethoxy]methyl}spiro[cyclohexane-1,1′-indene]-4-carboxylic acid] |
| 1720 | COc1cccc(C2Cc3ccccc3[C@]23CC[C@@](Nc2cccc(Cl)c2)(C(=O)O)CC3)c1 (single isomer, unassigned) [Example 273, (1r,4r)-4-(3-chloroanilino)-2′-(3-methoxyphenyl)-2′,3′-dihydrospiro[cyclohexane-1,1′-indene]-4-carboxylic acid] |
| 4350 | COc1ccc([C@H]2Cc3ccccc3[C@]23CC[C@@](Nc2cccc(Cl)c2)(C(=O)O)CC3)cc1 [Example 241, (1r,2′R,4R)-4-(3-chloroanilino)-2′-(4-methoxyphenyl)-2′,3′-dihydrospiro[cyclohexane-1,1′-indene]-4-carboxylic acid] |
| 93.5 | O=C(O)[C@]1(Nc2cccc(Cl)c2)CC[C@]2(CC1)C(CCCOc1cccc3[nH]ccc13)=Cc1ccccc12 [Example 434, (1r,4r)-4-(3-chloroanilino)-2′-{3-[(1H-indol-4-yl)oxy]propyl}spiro[cyclohexane-1,1′-indene]-4-carboxylic acid] |
| 623 | Cc1ccc(CCOCC2=Cc3ccccc3[C@]23CC[C@@](Nc2cccc(Cl)c2)(C(=O)O)CC3)cc1 [Example 416, (1s,4s)-4-(3-chloroanilino)-2′-{[2-(4-methylphenyl)ethoxy]methyl}spiro[cyclohexane-1,1′-indene]-4-carboxylic acid] |

Continued, compound first:

| Compound | Ki [nM] |
| --- | --- |
| CN1c2ccccc2C2(CCC(Nc3cccc(Br)c3)(C(=O)O)CC2)C1CCc1ccccc1 (single isomer, unassigned) [Example 25, 4-(3-bromoanilino)-1′-methyl-2′-(2-phenylethyl)-1′,2′-dihydrospiro[cyclohexane-1,3′-indole]-4-carboxylic acid] | 887 |
| C=CCOC1Cc2ccccc2[C@]12CC[C@@](Nc1cccc(Br)c1)(C(=O)O)CC2 (stereo partly shown) [Example 121, (1s,4s)-4-(3-bromoanilino)-2′-[(prop-2-en-1-yl)oxy]-2′,3′-dihydrospiro[cyclohexane-1,1′-indene]-4-carboxylic acid] | 1550 |
| O=C(O)[C@]1(Nc2cccc(Cl)c2)CC[C@]2(CC1)C(C1CC1)=Cc1ccccc12 [Example 90, (1r,4r)-4-(3-chloroanilino)-2′-cyclopropylspiro[cyclohexane-1,1′-indene]-4-carboxylic acid] | 2150 |
| CC1N(C)c2ccccc2[C@]12CC[C@@](Nc1cccc(Br)c1)(C(=O)O)CC2 (stereo partly shown) [Example 24, (1s,4s)-4-(3-bromoanilino)-1′,2′-dimethyl-1′,2′-dihydrospiro[cyclohexane-1,3′-indole]-4-carboxylic acid] | 19900 |
| O=C(O)[C@]1(Nc2cccc(Cl)c2)CC[C@]2(CC1)C(CCNc1ccccc1)=Cc1ccccc12 [Example 166, (1r,4r)-2′-(2-anilinoethyl)-4-(3-chloroanilino)spiro[cyclohexane-1,1′-indene]-4-carboxylic acid] | 688 |
| O=C(O)[C@]1(Nc2cccc(Cl)c2)CC[C@]2(CC1)C(C#CCCOc1ccnc3ccsc13)=Cc1ccccc12 [Example 195, (1s,4s)-4-(3-chloroanilino)-2′-{4-[(thieno[3,2-b]pyridin-7-yl)oxy]but-1-yn-1-yl}spiro[cyclohexane-1,1′-indene]-4-carboxylic acid] | 266 |
| COc1ccc2c(c1)[C@]1(CC[C@](Nc3cccc(Br)c3)(C(=O)O)CC1)C(Cc1ccccc1)C2 (stereo partly shown) [Example 126, (1s,4s)-2′-benzyl-4-(3-bromoanilino)-6′-methoxy-2′,3′-dihydrospiro[cyclohexane-1,1′-indene]-4-carboxylic acid] | 9150 |
| O=C(O)[C@]1(Nc2cccc(Cl)c2)CC[C@]2(CC1)C(Br)=Cc1c(Cl)cccc12 [Example 137, (1s,4s)-2′-bromo-4′-chloro-4-(3-chloroanilino)spiro[cyclohexane-1,1′-indene]-4-carboxylic acid] | 192 |
| CC[C@H]1c2ccccc2[C@]2(CC[C@@](Nc3cccc(Cl)c3)(C(=O)O)CC2)[C@H]1C (racemic) [Example 207, (1r,2′RS,3′SR,4r)-4-(3-chloroanilino)-3′-ethyl-2′-methyl-2′,3′-dihydrospiro[cyclohexane-1,1′-indene]-4-carboxylic acid] | 4660 |
| O=C(O)C1(Nc2cccc(Cl)c2)CCC2(C=Cc3cccnc32)CC1 (single isomer, unassigned) [Example 71, 4-(3-chloroanilino)spiro[cyclohexane-1,7′-cyclopenta[b]pyridine]-4-carboxylic acid] | 984 |
| CC(=O)c1ccc2c(c1)[C@]1(CC[C@@](Nc3cccc(Cl)c3)(C(=O)O)CC1)C(Br)=C2 [Example 132, (1s,4s)-6′-acetyl-2′-bromo-4-(3-chloroanilino)spiro[cyclohexane-1,1′-indene]-4-carboxylic acid] | 150 |
| COCCCC1Cc2ccccc2[C@]12CC[C@@](Nc1cccc(Cl)c1)(C(=O)O)CC2 (stereo partly shown) [Example 197, (1r,4r)-4-(3-chloroanilino)-2′-(3-methoxypropyl)-2′,3′-dihydrospiro[cyclohexane-1,1′-indene]-4-carboxylic acid] | 1380 |
| CN1c2ccccc2[C@]2(CC[C@@](Nc3cccc(Br)c3)(C(=O)O)CC2)C1=O [Example 17, (1s,4s)-4-(3-bromoanilino)-1′-methyl-2′-oxo-1′,2′-dihydrospiro[cyclohexane-1,3′-indole]-4-carboxylic acid] | 23100 |
| Cc1ccc2c(c1)[C@]1(CC[C@](Nc3cccc(Br)c3)(C(=O)O)CC1)C(=O)N2C [Example 7, (1r,4r)-4-(3-bromoanilino)-1′,5′-dimethyl-2′-oxo-1′,2′-dihydrospiro[cyclohexane-1,3′-indole]-4-carboxylic acid] | 23800 |
| O=C(O)[C@]1(Nc2cccc(Br)c2)CC[C@]2(CC1)c1ccccc1CC2CCc1ccccn1 (mixture of isomers) [Example 176, (1s,4s)-4-(3-bromoanilino)-2′-[2-(pyridin-2-yl)ethyl]-2′,3′-dihydrospiro[cyclohexane-1,1′-indene]-4-carboxylic acid] | 11800 |
| Cc1noc(C)c1C1Cc2ccccc2C12CCC(Nc1cccc(Br)c1)(C(=O)O)CC2 (single isomer, unassigned) [Example 231, 4-(3-bromoanilino)-2′-(3,5-dimethyl-1,2-oxazol-4-yl)-2′,3′-dihydrospiro[cyclohexane-1,1′-indene]-4-carboxylic acid] | 7720 |
| Cc1cncn(CCCC2Cc3ccccc3[C@]23CC[C@@](Nc2cccc(Cl)c2)(C(=O)O)CC3)c1=O (stereo partly shown) [Example 183, (1r,4r)-4-(3-chloroanilino)-2′-[3-(5-methyl-6-oxopyrimidin-1 (6H)-yl)propyl]-2′,3′-dihydrospiro[cyclohexane-1,1′-indene]-4-carboxylic acid] | 2480 |
